Data as given in patent US11911396B2, “Use of compound in preparation of drug for treating cerebral small vessel disease” (GUANGZHOU CELLPROTEK PHARMACEUTICAL CO., LTD, priority 2017, dated 2024).

Key:
Assay type in all cases: in vivo, cynomolgus monkeys
Heme Oxygenase-1 (HO-1) = test: Western blot of HO-1 in prefrontal cortex brain tissue, acute hypobaric hypoxia model; details: after hypobaric hypoxia, FIG. 4
From the text: (§1) FIG. 4. Triol enhanced the clearance of free hemoglobin in brain tissue by up-regulating CD163 and Heme Oxygenase-1 (HO-1) protein levels. A. Protein expression of hemoglobin scavenger receptor CD163 and heme oxygenase HO-1 in the brain tissue of the prefrontal cortex of cynomolgus monkeys; B. Statistics of protein relative gray scan values. The gray value was obtained by scanning with Image Lab software, and the relative value was obtained after normalizing with α-Tubulin. NN: Normobaric Normoxia group (N=3); HH: Hypobaric Hypoxia group (N=3); HH+Triol: Hypobaric Hypoxia with Triol administration group (N=3); HH+PROG: Hypobaric Hypoxia with progesterone administration group (N=3). […]
(§2) 1) Preparation of protein samples (see the instructions of M-PER protein lysate): After the cells had been processed for the specified time, the medium was aspirated and then washed with 4° C. pre-chilled PBS (0.01M pH7.2˜7.3) for 3 times. […] 2) BCA protein quantification (see the instructions of BCA protein quantification kit): corresponding components were added to a 96-well detection plate by the ratio of quantification reagent A solution:B solution:ddH2O:protein=100:2:7.5:5, and albumin standards diluted in gradient concentration were added to draw a standard curve. […] After the reaction, the absorbance of each well at a wavelength of 562 nm was detected using a microplate reader. […]

CD163 [1] = test: Western blot of CD163 in prefrontal cortex brain tissue, acute hypobaric hypoxia model; details: FIGS. 4A and 4B
From the text: as §1, §2

CD163 [2] = test: Immunofluorescence of CD163 in prefrontal cortex brain tissue, acute hypobaric hypoxia model; details: FIGS. 5A and 5B
From the text: FIG. 5. […] A. Immunofluorescence imaging of CD163 and Iba-1 in the brain tissue of cynomolgus monkeys. B. Statistics of relative fluorescence intensity of CD163 and Iba-1. C. Correlation analysis of relative fluorescence intensity of CD163 and Iba-1. NN: Normobaric Normoxia group; HH: Hypobaric Hypoxia group; HH+Triol: Hypobaric Hypoxia with Triol administration group; HH+PROG: Hypobaric Hypoxia with progesterone administration group. One-way ANOVA analysis and Dunnutt's t test were used to perform statistical tests, and in the latter each group was compared with the HH group, ***, p<0.001.
The thickness of paraffin sections was 5 μm. For fresh paraffin sections, the sections were dried at 37° C. overnight and then dried at 55° C. for 30 minutes. The sections were quickly placed in xylene for dewaxing. After fully dewaxing with xylene for 10 min for 3 times, absolute ethanol-95% ethanol-90% ethanol-80% ethanol-70% ethanol-50% ethanol-ddH2O were successively used for gradient rehydration. After rehydration, the sections were placed in EDTA antigen repair solution for microwave high temperature repair. After the repair was completed, it was allowed naturally cool down to room temperature. […] NIS-Elements Analysis software was used to analyze the fluorescence intensity of confocal images, which was then normalized with the fluorescence intensity per unit area according to the built-in scale. […]

## C[C@@]12CCCC1C1C[C@@H](O)[C@@]3(O)C[C@@H](O)CC[C@]3(C)C1CC2 (stereo partly drawn) [Triol, 5α-androst-3β,5,6β-triol]
Heme Oxygenase-1 (HO-1)
  expression of HO-1: further up-regulated
CD163 [1]
  down-regulation of CD163 expression caused by acute hypobaric hypoxia: significantly restored
CD163 [2]
  down-regulation of CD163 expression caused by acute hypobaric hypoxia: significantly restored
